Earlier results, collected in article PMC9328939, “A Randomized Double‐Blind Placebo‐Controlled First‐In‐Human Phase 1 Trial of TransCon PTH in Healthy Adults” (Journal of Bone and Mineral Research, 2020).

Key:
healthy volunteers = conditions: sCa raised comparably to a calcium clamp (10.3 mg/dL; FECa 6.0% to 7.0%) by infusion of PTHrP(1-36); cited from earlier work
Text: TransCon PTH may also positively impact hypercalciuria, a major cause of morbidity in patients with HP.

PTH/PTHrP receptor = conditions: stated without data; no reference given; cited from earlier work
[1] = short-acting PTH(1-84); cited from earlier work
Text: The TransCon PTH bone turnover data are similar to the published literature, which illustrate that continuous PTH administration is not anabolic. […] TransCon PTH did modestly and transiently increase the bone resorption marker, serum CTx, consistent with t ...

Molecule: PTHrP(1‐36): parathyroid hormone-related protein fragment infused in healthy volunteers in a literature study
- FECa (healthy volunteers): did not differ from normal controls

Molecule: PTH(1‐33): metabolite of PTH(1-34) shortened by a single amino acid; part of Free PTH (SVSEIQLMHNLGKHLNSMERVEWLRKKLQDVHN; Parathyroid hormone; UniProt P01270 32-64, looked up, fragment)
- potency at the PTH/PTHrP receptor relative to PTH(1-34) (PTH/PTHrP receptor): equipotency

B1: PTH(1‐84): parathyroid hormone for injection, once-daily short-acting rhPTH(1-84) (protein, UniProt P01270 32-115, looked up)
Parathyroid hormone: SVSEIQLMHNLGKHLNSMERVEWLRKKLQDVHNFVALGAPLAPRDAGSQRPRKKEDNVLVESHEKSLGEADKADVNVLTKAKSQ
modifications: Parathyroid hormone
- persistent increase in CTx [1]: 200%
